The record followed here is US11311598B2, “Peptides and analogs for use in the treatment of oral mucositis” (Soligenix, Inc., priority 2013, dated 2022).

One series concerns male C57BL/6 mice. The experiment in a line: DSS-induced colitis model. In kind it is in vivo, mouse. The method, then: The ability of IV RIVPA (SEQ ID NO. 5), administered pre-emptively or therapeutically, to directly protect GI mucosal surfaces was confirmed in a DSS-induced colitis model. In this model, DSS was administered as a 3% DSS solution in the drinking water of male C57BL/6 mice from Days 0 to 5 of the study. Colitis was monitored by video endoscopy on Days 7, 14 and 21. RIVPA (SEQ ID NO. 5) (25 mg/kg IV) was administered every third day from Days 0 to 18 (Q3d d0-18), from Days 3 to 18 (Q3d d3-18) or from Days 6 to 18 (Q3d d6-18). […] However, reduction in Day 7 scores was only observed in groups which had received at least 2 doses of RIVPA (SEQ ID NO. 5) by that time (i.e., Q3d d0-18 and Q3d d3-18 but not Q3d d6-18). […] Statistical analysis was undertaken using t-tests and an asterisk indicates statistically significant differences from control (p<0.05).

Another series has as its system MRSA (USA300). It counts as in vivo, mouse. As for the experimental part:
Multiple studies with IV administered RIVPA (SEQ ID NO. 5) were conducted in a MRSA bacteremia model. […] In the first study, MRSA (USA300, 7.3 log 10 cfu) was administered via IV injection into the tail vein of female Balb/c mice at time 0. Four hours prior to infection, a single dose of saline or RIVPA (SEQ ID NO. 5) at the indicated dose levels was injected IV into the tail vein. Sub-optimal antibiotic treatment (linezolid, 6.25 mg/kg) was administered once orally immediately after infection. Survival was monitored for 21 days after the infection. In the second study, RIVPA (SEQ ID NO. 5) (IV) or saline (IV) was administered once 4 h prior to infection with MRSA (strain USA300, 7.0 log10 cfu) via the tail vein into female nu/nu mice.

For series [1], the system named is S. aureus (Catalog No. 25923, ATCC). The experiment in a line: S. aureus acute peritoneal infection model, local IP treatment. In kind it is in vivo, mouse. As to conditions: female CD-1 mice, 9.5 mg/kg IP 4 h after infection; 24 h after infection. The method, then: Intraperitoneal (IP) injection of S. aureus (Catalog No. 25923, ATCC, 6×10^7 cfu) with 5% mucin was administered IP to female CD-1 mice (N=8/group) and RIVPA (SEQ ID NO. 5) (9.5 mg/kg) was injected IP 4 h later. Mice were sacrificed 24 h after infection and peritoneal lavage fluid was assessed for bacterial counts. The results of this study are shown in FIG. 11 (each data point represents the result from an individual mouse—dead mice were given the highest bacterial count of any mouse obtained in the study and are represented as open symbols in the graph).

The subject of another series is MRSA. The experiment in a line: MRSA skin infection model. It counts as in vivo, mouse. As for the experimental part: Infection was initiated 1 day after the hair was removed from the dorsal area of each mouse. RIVPA (SEQ ID NO. 5) (25 mg/kg IV or 100 mg/kg SC) was administered 4 h prior to infection and at various times after infection as indicated. Oral linezolid was used as the comparator and was administered daily at 12.5 mg/kg. On Day 0 (at −1 h) each mouse was anesthetized using isoflurane and the shaved dorsal skin was damaged by 7 consecutive applications and removals of surgical tape. This lesion was then immediately infected by topical administration of 10 μL of the bacterial suspension, delivering a total challenge of 7.6 login cfu per mouse. Efficacy was evaluated by measurement of the bacterial burden in punch biopsies of the skin at 48 h (FIG. 14—panel A) and 96 h (FIG. 14—panel B) following the bacterial challenge and by macroscopic assessment of digital images of the skin by a blinded, board-certified pathologist at 48 h (FIG. 14—panel C) and 96 h (FIG. 14—panel D) after infection. […] The mean bacterial burden for each therapeutic group was statistically compared to that of its time-matched saline control through use of a t-test comparison of means, assuming unequal variances, performed on Excel. Comparisons which returned a p value […] were considered statistically different.

The next series has as its system cynomolgus monkeys. Briefly: cynomolgus monkey IV toxicity studies (pilot, GLP 14-day). It counts as in vivo. As to conditions: for occurrence of acute toxicity (respiratory depression): cynomolgus monkey. The method, then:
Two pilot and 2 definitive repeat-dose toxicity studies were conducted with RIVPA (SEQ ID NO. 5) in mice and cynomolgus monkeys using the intravenous (IV; slow bolus) route of administration. All studies were conducted by LAB Research Inc., Canada.
These resolved within a few minutes without detectable residual effects.
RIVPA (SEQ ID NO. 5) at 20, 80, 160 mg/kg/day was given IV to cynomolgus monkeys for 14 days. […] In all cases, these clinical signs resolved within a few minutes. […] A dose level of 80 mg/kg/day was considered to be the No-Observed-Adverse-Effect-Level (NOAEL) for this study.
Overall, the NOAEL is considered to be 80 mg/kg/day for cynomolgus monkeys since transient clinical signs were limited to a single study and occurred in only 2 instances of the 98 administrations of the drug at this dose level.
The observed respiratory depression occurred at different dose levels in different species, and was not predicted by allometric scaling. In particular, the mouse appeared to be the most sensitive species with acute toxicity occurring rarely at 60 mg/kg (HED: ^˜5 mg/kg) and commonly at 90 mg/kg (HED: ^˜7 mg/kg). In contrast in NHP (cynomologus monkey), acute toxicity occurred occasionally at 160 mg/kg (HED: ^˜50 mg/kg) and consistently at 240 mg/kg (HED: ^˜78 mg/kg).

In series [2] the test system is CNS receptors and ion channels. Briefly: battery of CNS receptors and ion channels in vitro. It counts as binding. The method, then: No effects of RIVPA (SEQ ID NO. 5) have been observed on the central nervous system (CNS) in any study at any dose level and little or no radiolabelled RIVPA (SEQ ID NO. 5) was found in the mouse CNS at dose levels of either 20 or 90 mg/kg.

Where no end group is shown, it is not given here.

In the case of RIVPA-NH2 [RIVPA (SEQ ID NO. 5), RIVPA], the “endoscopic colitis severity score” value in the series on male C57BL/6 mice (Day 7, Q3d d0-18) was “reduction”; in the series with male C57BL/6 mice (Day 7, Q3d d3-18), “reduction”; with male C57BL/6 mice (Day 14, all regimens, 25 mg/kg IV every third day) it was “statistically significant reduction”. Besides, the endoscopic colitis response result with male C57BL/6 mice (Day 21, all 3 treatment groups) is on record as “responding in a similar manner”. Further, the “edema and necrosis, histopathology of the colon” value in the series with male C57BL/6 mice (Day 21, some RIVPA treated groups) is recorded as “statistically significantly decreased”. The “severity of DSS-induced colitis” value in the series on male C57BL/6 mice (endoscopy days 7, 14, 21 and histopathology day 21, FIG. 3) is reported as “reduces”. Moreover, the “duration for which the survival benefit is sustained” value in the series with MRSA (USA300) (FIG. 9) is “at least 21 days”. Moreover, the “time after initiation of infection at which administration still confers a survival benefit” value in the series on MRSA (USA300) (MRSA bacteremia model (data not shown)) is recorded as “up to 24 h”. Also, in the series on MRSA (USA300) (depending on dose level (data not shown)), the “time prior to initiation of infection at which a single dose still confers a survival benefit” value is given as “up to 5 days”. Besides, the “survival over the saline control” value in the series with MRSA (USA300) (female Balb/c mice, single dose 50 mg/kg IV 4 h prior to infection, linezolid 6.25 mg/kg oral, 21 days) is given as “statistically significant enhanced survival”. Further, the “reduction of bacterial load in peritoneal lavage fluid” value in series [1] is reported as “over 7 logs”. Further, in the series on MRSA (25 mg/kg IV or 100 mg/kg SC, 4 h prior to infection and after), the skin healing entry is “accelerating skin healing”. In addition, the “bacterial load in skin punch biopsies relative to control” value in the series on MRSA (48 or 96 h after bacterial challenge) is “neither linezolid nor RIVPA (SEQ ID NO. 5) reduced bacterial load”. Moreover, the “resolution of tissue damage in topically MRSA-infected skin” value with MRSA (FIG. 14) is recorded as “enhances”. Moreover, the “HED of acutely toxic dose” value with cynomolgus monkeys (NHP 160 mg/kg) is approximately 50 mg/kg; in the series with cynomolgus monkeys (NHP 240 mg/kg) it was approximately 78 mg/kg. Further, the “immune-related organ weights, histopathology, hematology and clinical chemistry” value in the series on cynomolgus monkeys (NHP 14-day toxicity study) is “no changes were observed”. The clinical signs entry was “mild clinical signs” in the series on cynomolgus monkeys (NHP pilot studies, 90 (1 animal), 180 (both animals) and 220 (1 animal) mg/kg, during and shortly after dosing); “Transient decreased activity and partially closed eyes” in the series with cynomolgus monkeys (cynomolgus monkeys, 160 mg/kg/day IV for 14 days). Moreover, the “T-cell, B-cell or NK-cell counts” value in the series with cynomolgus monkeys (NHP, after 14 days of intravenous dosing) was “no effect”. The “occurrence of acute toxicity (respiratory depression)” value was “occasionally” with cynomolgus monkeys (160 mg/kg) and “consistently” in the series with cynomolgus monkeys (240 mg/kg). The toxicity entry in the series on cynomolgus monkeys (cynomolgus monkeys, 20 and 80 mg/kg/day IV for 14 days) is on record as “did not result in any evidence of toxicity”. Moreover, the “interaction with CNS receptors and ion channels” value in series [2] is “No interaction was detected”.
